{"source": "paper PMC8607422", "about": "“Development of a novel TLR8 agonist for cancer immunotherapy” (Molecular Biomedicine, 2020)", "key": {"[1]": {"test": "Cell viability (ATPlite 1 Step) cytotoxicity assay", "type": "cell-based", "conditions": "human, HEK-Blue hTLR7 and hTLR8 cells", "text": "HEK-Blue™ hTLR4, 7, 8 and 9 cell lines were purchased from InvivoGen (Hong Kong). The cells express the human TLR gene and NF-κB/AP-1-inducible SEAP (secreted embryonic alkaline phosphatase) reporter gene. SEAP levels produced upon TLR stimulation can be determined by QUANTI-Blue™. In the cell-based assay, the main reagents used were QUANTI-Blue™ (InvivoGen) and ATPlite 1 Step (Perkin Elmer). The main instruments used were the microplate reader SpectraMax 340PC (Molecular Device) and Envision (Perkin Elmer). Motolimod and DN052 were synthesized in house. […] The compounds were in 10 mM stock solution in DMSO and stored at − 20°C. The compounds were serially diluted in the concentration range from 0.5 nM to 15 μM (up to 50 μM in the hTLR4, hTLR7 and hTLR9 assays) and added to 96-well plates. DMSO was used as the negative control. LPS-EK, R848, motolimod and ODN2006 were used as the positive control for TLR4, 7, 8 and 9, respectively. The cells were cultured and treated with the compounds at 37°C, 5%CO2 for 24 h. […] After 1.5 h of incubation, the optical density was measured using the spectrophotometer at 650 nm in the microplate reader of SpectraMax 340PC. The cell viability of each well was determined using ATPlite 1 Step following the manufacturer’s instruction. The luminescence signal in each well of plates was measured in the microplate reader of Envision."}, "serum cytokines": {"test_system": "serum cytokines", "test": "In vivo cytokine induction in monkeys", "design": "species or system cynomolgus monkeys", "conditions": "monkey, 1 mg/kg sc single dose", "procedure": "Cynomolgus monkeys were purchased from Guangxi Xiongsen Primate Laboratory Animals Co., Ltd. (Guangxi, China) and three 3–4 years old male monkeys were used in each group. […] A single dose of motolimod was sc administered at 1 mg/kg. Blood samples were collected pre-dose, 6 and 24 h post-dose. Levels of cytokines including IFN-γ, IL-10, IL-1β, IL-6, IL-8, MIP-1α, MIP-1β, G-CSF, IL-12p40, IL-12p70 and TNF-α were measured using MSD ECL cytokine assay kit following the manufacturer’s protocol."}, "in vivo": {"test": "in vivo", "design": "species or system Sprague Dawley rats", "conditions": "Sprague Dawley, rat", "procedure": "To determine the in vivo pharmacokinetic profiles, the compounds were formulated with 11% captisol and then administered iv, ip, sc and po into Sprague Dawley rats or iv and sc into mice or cynomolgus monkeys, respectively. Blood samples were collected before dosing and 0.083 h, 0.25 h, 0.5 h, 1 h, 2 h, 4 h, 6 h, 8 h, 12 h and 24 h after dosing. Blood samples were collected in tubes containing K2EDTA. Plasma was isolated from the blood samples by centrifugation of the blood samples at 2400 × g for 5 min at 4°C. Plasma samples were measured using LC-MS/MS (Waters ACQUITY UPLC and TQ 6500+) to determine the concentration of compounds. The data was analyzed using WinNonlin 7.0 to calculate the PK parameters such as AUC0-t, AUC0-∞, MRT0-∞, Cmax, Tmax, t1/2 and F."}, "[2]": {"test_system": "human peripheral blood mononuclear cells (PBMCs)", "test": "Ex vivo human PBMC cytokine induction assay", "type": "cell-based", "conditions": "24 h", "procedure": "Briefly, PBMCs were isolated from fresh human blood (Chempartner, Shanghai, China). 2 × 10^5/100 μL/well hPBMCs were plated on 96-well cell culture plates. Serial dilutions of compounds with concentration range from 2 nM to 30 μM were added in duplicate wells. LPS was included as a control. The plate was incubated in a 37°C, 5% CO2 incubator for 24 h. The supernatant was harvested for cytokine detection using MILLIPLEX MAP Human Cytokine/Chemokine Magnetic Bead Panel - Immunology Multiplex Assay (Millipore) following the manufacturer’s protocol. Cytokines including TNF-α, IFN-α2, IL-1α, IL-1β, IL-6, IL-8, IL-10, IL-12p40, IL-12p70, MIP-1α, MIP-1β, G-CSF and IFN-γ were measured."}, "hERG potassium channel": {"test_system": "T1, hERG potassium channel", "T1 construct": "purchased Eurofins Cerep44 panel", "test": "Eurofins Cerep44 off-target panel", "conditions": "human; 10 μM compound; >50% considered significant; read-out: effect on potassium channel hERG in Cerep screen (% inhibition of binding)", "procedure": "Compound binding was calculated as a % inhibition of the binding of a radioactively labeled ligand specific for each target. Compound enzyme inhibition effect was calculated as a % inhibition of control enzyme activity."}}, "note": "Read-outs that look alike come from different tables or passages of the source.", "data": [{"smiles": "CCCN(CCC)C(=O)C1=Cc2ccc(-c3ccc(C(=O)N4CCCC4)cc3)cc2N=C(N)C1", "note": "[Motolimod, motolimod]", "values": [{"measurement": "CC50 at 24 h", "setting": "[1]", "value": "> 50", "unit": "µM"}, {"measurement": "serum G-CSF, Mean Values", "setting": "serum cytokines; 0 h (pre-dose)", "value": 7.135, "unit": "pg/mL"}, {"measurement": "serum IFN-γ, Mean Values", "setting": "serum cytokines; 0 h (pre-dose)", "value": 1.017, "unit": "pg/mL"}, {"measurement": "serum IL-1β, Mean Values", "setting": "serum cytokines; 0 h (pre-dose)", "value": 0.000, "unit": "pg/mL"}, {"measurement": "serum IL-6, Mean Values", "setting": "serum cytokines; 0 h (pre-dose)", "value": 1.510, "unit": "pg/mL"}, {"measurement": "serum IL-8, Mean Values", "setting": "serum cytokines; 0 h (pre-dose)", "value": 0.000, "unit": "pg/mL"}, {"measurement": "serum IL-10, Mean Values", "setting": "serum cytokines; 0 h (pre-dose)", "value": 0.271, "unit": "pg/mL"}, {"measurement": "serum IL-12p40, Mean Values", "setting": "serum cytokines; 0 h (pre-dose)", "value": 131.413, "unit": "pg/mL"}, {"measurement": "serum IL-12p70, Mean Values", "setting": "serum cytokines; 0 h (pre-dose)", "value": 2.582, "unit": "pg/mL"}, {"measurement": "serum MIP-1α, Mean Values", "setting": "serum cytokines; 0 h (pre-dose)", "value": 71.636, "unit": "pg/mL"}, {"measurement": "serum MIP-1β, Mean Values", "setting": "serum cytokines; 0 h (pre-dose)", "value": 93.266, "unit": "pg/mL"}, {"measurement": "serum G-CSF, Mean Values", "setting": "serum cytokines; 6 h", "value": 345.154, "unit": "pg/mL"}, {"measurement": "serum IFN-γ, Mean Values", "setting": "serum cytokines; 6 h", "value": 0.500, "unit": "pg/mL"}, {"measurement": "serum IL-1β, Mean Values", "setting": "serum cytokines; 6 h", "value": 0.286, "unit": "pg/mL"}, {"measurement": "serum IL-6, Mean Values", "setting": "serum cytokines; 6 h", "value": 342.661, "unit": "pg/mL"}, {"measurement": "serum IL-8, Mean Values", "setting": "serum cytokines; 6 h", "value": 0.378, "unit": "pg/mL"}, {"measurement": "serum IL-10, Mean Values", "setting": "serum cytokines; 6 h", "value": 15.222, "unit": "pg/mL"}, {"measurement": "serum IL-12p40, Mean Values", "setting": "serum cytokines; 6 h", "value": 305.212, "unit": "pg/mL"}, {"measurement": "serum IL-12p70, Mean Values", "setting": "serum cytokines; 6 h", "value": 5.154, "unit": "pg/mL"}, {"measurement": "serum MIP-1α, Mean Values", "setting": "serum cytokines; 6 h", "value": 227.638, "unit": "pg/mL"}, {"measurement": "serum MIP-1β, Mean Values", "setting": "serum cytokines; 6 h", "value": 1655.094, "unit": "pg/mL"}, {"measurement": "serum G-CSF, Mean Values", "setting": "serum cytokines; 24 h", "value": 32.168, "unit": "pg/mL"}, {"measurement": "serum IFN-γ, Mean Values", "setting": "serum cytokines; 24 h", "value": 0.462, "unit": "pg/mL"}, {"measurement": "serum IL-1β, Mean Values", "setting": "serum cytokines; 24 h", "value": 0.099, "unit": "pg/mL"}, {"measurement": "serum IL-6, Mean Values", "setting": "serum cytokines; 24 h", "value": 12.185, "unit": "pg/mL"}, {"measurement": "serum IL-8, Mean Values", "setting": "serum cytokines; 24 h", "value": 0.119, "unit": "pg/mL"}, {"measurement": "serum IL-10, Mean Values", "setting": "serum cytokines; 24 h", "value": 1.347, "unit": "pg/mL"}, {"measurement": "serum IL-12p40, Mean Values", "setting": "serum cytokines; 24 h", "value": 118.409, "unit": "pg/mL"}, {"measurement": "serum IL-12p70, Mean Values", "setting": "serum cytokines; 24 h", "value": 3.305, "unit": "pg/mL"}, {"measurement": "serum MIP-1α, Mean Values", "setting": "serum cytokines; 24 h", "value": 87.417, "unit": "pg/mL"}, {"measurement": "serum MIP-1β, Mean Values", "setting": "serum cytokines; 24 h", "value": 221.881, "unit": "pg/mL"}, {"measurement": "bioavailability", "setting": "in vivo", "value": 57.4, "unit": "%"}, {"measurement": "Vd", "setting": "in vivo; iv, 2.5 mg/kg", "value": 18.6, "unit": "L/kg"}, {"measurement": "clearance", "setting": "in vivo; iv, 2.5 mg/kg", "value": 45.5, "unit": "mL/min/kg"}, {"measurement": "AUC(0-inf)", "setting": "in vivo; sc, 10 mg/kg", "value": 2130, "unit": "ng·h/mL"}, {"measurement": "AUC(0-t)", "setting": "in vivo; sc, 10 mg/kg", "value": 2130, "unit": "ng·h/mL"}, {"measurement": "Cmax", "setting": "in vivo; sc, 10 mg/kg", "value": 720, "unit": "ng/mL"}, {"measurement": "Tmax", "setting": "in vivo; sc, 10 mg/kg", "value": 1.17, "unit": "h"}, {"measurement": "half-life", "setting": "in vivo; sc, 10 mg/kg", "value": 0.92, "unit": "h"}, {"measurement": "EC50", "setting": "[2]; Donor 1, 24 h, read-out: EC50 G-CSF induction", "value": 0.841, "unit": "µM"}, {"measurement": "EC50", "setting": "[2]; Donor 1, 24 h, read-out: EC50 IFN-α2 induction", "value": 1.33, "unit": "µM"}, {"measurement": "EC50", "setting": "[2]; Donor 1, 24 h, read-out: EC50 IFN-γ induction", "value": 4.16, "unit": "µM"}, {"measurement": "EC50", "setting": "[2]; Donor 1, 24 h, read-out: EC50 IL-1α induction", "value": 0.849, "unit": "µM"}, {"measurement": "EC50", "setting": "[2]; Donor 1, 24 h, read-out: EC50 IL-1β induction", "value": 0.665, "unit": "µM"}, {"measurement": "EC50", "setting": "[2]; Donor 1, 24 h, read-out: EC50 IL-6 induction", "value": 0.424, "unit": "µM"}, {"measurement": "EC50", "setting": "[2]; Donor 1, 24 h, read-out: EC50 IL-8 induction", "value": 0.504, "unit": "µM"}, {"measurement": "EC50", "setting": "[2]; Donor 1, 24 h, read-out: EC50 IL-10 induction", "value": 0.304, "unit": "µM"}, {"measurement": "EC50", "setting": "[2]; Donor 1, 24 h, read-out: EC50 IL-12(p40) induction", "value": 0.447, "unit": "µM"}, {"measurement": "EC50", "setting": "[2]; Donor 1, 24 h, read-out: EC50 IL-12(p70) induction", "value": 0.285, "unit": "µM"}, {"measurement": "EC50", "setting": "[2]; Donor 1, 24 h, read-out: EC50 MIP-1α induction", "value": 0.277, "unit": "µM"}, {"measurement": "EC50", "setting": "[2]; Donor 1, 24 h, read-out: EC50 MIP-1β induction", "value": 0.277, "unit": "µM"}, {"measurement": "EC50", "setting": "[2]; Donor 1, 24 h, read-out: EC50 TNF-α induction", "value": 0.321, "unit": "µM"}, {"measurement": "EC50", "setting": "[2]; Donor 2, 24 h, read-out: EC50 G-CSF induction", "value": 0.461, "unit": "µM"}, {"measurement": "EC50", "setting": "[2]; Donor 2, 24 h, read-out: EC50 IFN-α2 induction", "value": 0.344, "unit": "µM"}, {"measurement": "EC50", "setting": "[2]; Donor 2, 24 h, read-out: EC50 IFN-γ induction", "value": 1.66, "unit": "µM"}, {"measurement": "EC50", "setting": "[2]; Donor 2, 24 h, read-out: EC50 IL-1α induction", "value": 0.348, "unit": "µM"}, {"measurement": "EC50", "setting": "[2]; Donor 2, 24 h, read-out: EC50 IL-1β induction", "value": 0.556, "unit": "µM"}, {"measurement": "EC50", "setting": "[2]; Donor 2, 24 h, read-out: EC50 IL-6 induction", "value": 0.439, "unit": "µM"}, {"measurement": "EC50", "setting": "[2]; Donor 2, 24 h, read-out: EC50 IL-8 induction", "value": 0.502, "unit": "µM"}, {"measurement": "EC50", "setting": "[2]; Donor 2, 24 h, read-out: EC50 IL-10 induction", "value": 0.191, "unit": "µM"}, {"measurement": "EC50", "setting": "[2]; Donor 2, 24 h, read-out: EC50 IL-12(p40) induction", "value": 0.344, "unit": "µM"}, {"measurement": "EC50", "setting": "[2]; Donor 2, 24 h, read-out: EC50 IL-12(p70) induction", "value": "> 30", "unit": "µM"}, {"measurement": "EC50", "setting": "[2]; Donor 2, 24 h, read-out: EC50 MIP-1α induction", "value": 0.208, "unit": "µM"}, {"measurement": "EC50", "setting": "[2]; Donor 2, 24 h, read-out: EC50 MIP-1β induction", "value": 0.248, "unit": "µM"}, {"measurement": "EC50", "setting": "[2]; Donor 2, 24 h, read-out: EC50 TNF-α induction", "value": 0.317, "unit": "µM"}, {"measurement": "inhibition at 10 µM", "setting": "hERG potassium channel", "value": 59.2, "unit": "%"}]}]}
